Laboratory results taken from ChEMBL document CHEMBL3507680, “University of Dundee, Gates Library screen for HepG2 cell viability”.

Test: Human HepG2 cell viability assay in 384 well format
Type: toxicity, cell-based
Parameters: dose 125 nL, time 70.5 hour; concentration not given beside the values
Details: HepG2 cells, read-out: Inhibition

| Structure (SMILES) | cytotoxicity at 70.5 h |
| --- | --- |
| O=C(CCO)N1CCC2(CCc3ccc(-c4ccoc4)cc32)CC1 | -12.5% |
| COc1ncccc1CN1CC[C@H]2O[C@H](c3nnc(C)o3)CC[C@H]21 | -11.5% |
| CN(C)c1ccc2c(c1)CN(C(=O)c1cnccn1)C2c1cnco1 (configuration not stated) | 22.8% |
| CC1N(CC2CC2)C(=O)COC12CCN(C(=O)c1cccs1)CC2 (configuration not stated) | -5.2% |
| CN(C)c1ccc2c(c1)CN(C(=O)c1c[nH]cn1)C2c1cnco1 (configuration not stated) | 29.3% |
| CC1N(CC2CC2)C(=O)COC12CCN(C(=O)c1ccncc1)CC2 (configuration not stated) | -1.87% |
| CN(C)C[C@H]1C[C@@H]2CN(C(=O)c3ccco3)C[C@@H]2O1 | -2.65% |
| c1cnc(NCc2n[nH]c3c2CCN(Cc2ccncc2)C3)nc1 | -6.35% |
| CCN1CC2(CC1=O)CN(C(=O)NC)CCN(S(C)(=O)=O)C2 (configuration not stated) | -6.12% |
| Cc1cnc(CNC(=O)C[C@@H]2COC[C@H]3CN(C4CCC4)C[C@@H]23)cn1 | 25.6% |
| CN(C)CCN1C[C@@H]2CN(C(=O)C3CC=CC3)C[C@@H]2C1=O | -10.8% |
| CN(C)CC(=O)N1Cc2cc(N(C)C)ccc2C1c1cnco1 (configuration not stated) | -12.7% |
| COCC(=O)N1CCC2(CC1)CCn1c(-c3cccc(OC)c3)cnc12 | 36.2% |
| CC(C)NC(=O)N1CCC2(CC1)CCn1c(C3CC3)cnc12 | 51.2% |
| CC(C)Nc1nc2c(c(NC3CC3)n1)CN(C(=O)Cc1ccsc1)CC2 | 3.26% |
| Cc1cnc(N2CCC3(CC2)C(c2ccccc2)CC(=O)N3C)nc1 (configuration not stated) | -10.2% |
| CN(C)C(=O)N1CC2(CCOCC2)c2cc(NS(=O)(=O)C3CC3)ccc21 | 11.5% |
| O=C(Nc1cnccn1)[C@H]1COC[C@H]2CN(c3ncc(F)cn3)C[C@H]21 | -5.25% |
| CNC(=O)N1CCC2(CC1)CN(C)c1ccc(F)cc12 | 2.16% |
| CC(C)Nc1nc2c(c(NC3CC3)n1)CN(C(=O)c1ccsc1)CC2 | -17.2% |
| c1cnc(N2CC3(CCN(C4CCOC4)CC3)c3ccccc32)nc1 (configuration not stated) | -6.16% |
| COc1cccc(CNC(=O)c2nc3c(o2)CN(C(=O)N(C)C)C3)c1 | -8.42% |
| Cc1ccc(CN2C[C@H]3C[C@H](C(=O)NCc4cccnc4)[C@@H](C2)O3)cc1 | 37.6% |
| O=C(C1CC1)N1CCC2(CC1)CNCCO2 | 4.17% |
| CC(C)N(C)C(=O)C1=NOC2(CCN(C(=O)c3cccn3C)C2)C1 (configuration not stated) | 24.9% |
| CC(C)N(C)C(=O)C1=NOC2(CCN(C(=O)c3ccnnc3)C2)C1 (configuration not stated) | -1.5% |

| Structure (SMILES) | cytotoxicity at 70.5 h |
| --- | --- |
| CCOCC(=O)N1Cc2nccn2CC(CN(C)C)C1 (configuration not stated) | 1.2% |
| Cc1noc([C@@H]2C[C@H]3OCC[C@H]3N(S(=O)(=O)N(C)C)C2)n1 | -0.423% |
| Cc1ccc(N2CCOCC3(CCCN(c4ncc(F)cn4)C3)C2)nn1 (configuration not stated) | -3.89% |
| Cc1cnc(N2CCCC3(COCCN(c4ccc(C)nn4)C3)C2)nc1 (configuration not stated) | -2.56% |
| CN(C)c1nccc(N2CCO[C@H]3CN(Cc4ccco4)C[C@H]32)n1 | 3.82% |
| O=c1cc(CN2CCCC2)nc2n1CCCN(Cc1ccoc1)C2 | 1.82% |
| Cc1noc([C@@H]2C[C@H]3OCC[C@H]3N(S(=O)(=O)c3ccccc3)C2)n1 | -1.71% |
| CN1C(=O)CC[C@@H]2[C@H]1CCN2S(=O)(=O)Cc1ccccc1 | 47.7% |
| CS(=O)(=O)N1CC[C@@H]2O[C@@H](COCC(=O)N3CCCC3)CC[C@@H]21 | 22.1% |
| COc1cc(N2C[C@H](C(=O)NC3CC3)[C@@H]3CCO[C@@H]3C2)ncn1 | -7.61% |
| Cn1cc(CN2CCC3(CCCN(C(=O)c4cscn4)C3)C2)cn1 (configuration not stated) | -3.85% |
| COCCN1C(=O)C[C@H]2[C@H]1CCN2C(=O)c1ccc[nH]1 | -10.2% |
| Cc1nc(CO[C@@H]2CN(Cc3ccco3)[C@@H]3COC[C@@H]32)cs1 | -14.3% |
| Cn1ncc2c1C(COCC1CC1)CN(Cc1ccncc1)C2 (configuration not stated) | -8.73% |
| N#Cc1ccc(OC[C@]23COC[C@H]2CN(Cc2ccoc2)C3)nc1 | 0.658% |
| Cn1cc(N2CCC3(CCN(C(=O)[C@H]4CCCO4)C3)C2=O)cn1 (some centres not stated) | -7.22% |
| COC[C@@]12CCO[C@@H]1CCN(C(=O)COc1ccc(C)cc1)C2 | -2.71% |
| CNC(=O)N1Cc2cc(F)ccc2C2(CCN(C)CC2)C1 | -1.35% |
| CNC(=O)N1CCC2(CC1)CN(C)Cc1cc(F)ccc12 | 2.33% |
| Cc1nnc([C@@H]2C[C@H]3CN(C(=O)c4c(C)noc4C)C[C@H]3O2)[nH]1 | -11.6% |
| Cc1cccc(CN2CCc3[nH]nc(C(=O)N4CCNC(=O)C4)c3C2)n1 | -10.5% |
| Cc1ccc(N2C[C@@H]3CN(C(=O)c4ccccc4)CCO[C@@H]3C2)nn1 | 23.3% |
| CN(C)CCN1C[C@@H]2CN(C(=O)C3CCOC3)C[C@@H]2C1=O (some centres not stated) | 23.4% |
| CC(C)N1CCOCC2(CCCN(C(=O)c3cncn3C)C2)C1 (configuration not stated) | -8.05% |
| O=C1CC[C@H]2[C@H](CCN2c2ccccn2)N1CC1CCOCC1 | -9.84% |
| O[C@@H]1CCN(CC2CCOC2)[C@H]1Cc1ccccc1 (some centres not stated) | -3.68% |

| Structure (SMILES) | cytotoxicity at 70.5 h |
| --- | --- |
| CN(C)C(=O)COC[C@@]12CCC[C@@H]1CN(C1CCCC1)C2 | -1.63% |
| CC(C)n1nc(Cn2cccc2)c2c1CN(Cc1ccoc1)C2 | -4.83% |
| Cc1ccc(N2CC[C@H]3[C@@H]2CCC(=O)N3CCN2CCOCC2)nn1 | -6.53% |
| CN(C)CCOC1CC2(CCN(c3cnccn3)CC2)c2ccccc21 (configuration not stated) | 31.5% |
| Cc1nc(COCc2nc3c(o2)CN(C(=O)c2ccc[nH]2)C3)cs1 | -3.29% |
| c1ccc(OCc2nnn3c2CN(c2ncccn2)CCC3)nc1 | 6.14% |
| CCN(CC)c1ccc2ccc(C(=O)N(CCOC)CCOC)cn12 | -0.14% |
| CN(C)CC1CN(C(=O)Cc2ccccc2)Cc2nccn2C1 (configuration not stated) | 24% |
| O=C(C[C@@H]1COC[C@H]2CN(C(=O)c3cccnc3)C[C@@H]12)N1CCOCC1 | -4.26% |
| O=C1COC2(CCN(Cc3cccs3)CC2)CN1c1cncnc1 | 0.999% |
| Cc1ccc(N2CCCC3(COCCN(c4ccccn4)C3)C2)nn1 (configuration not stated) | -8.01% |
| COCC(=O)N1CCCn2c(CN3CCOCC3)nnc2C1 | 2.56% |
| N#Cc1cccc(CN2Cc3nccn3CC(COCC3CC3)C2)c1 (configuration not stated) | 8.65% |
| CC(C)N(C)Cc1cn2c(n1)CN(C(=O)Cc1ccccc1)CC2 | -2.24% |
| c1ccc(N2CCC3(CCCN(c4ncccn4)C3)C2)nc1 (configuration not stated) | 2.93% |
| Cc1ccc(C(=O)N2CCC3(CCN3c3ncccn3)C2)cn1 (configuration not stated) | -1.31% |
| O=C(C[C@@H]1COC[C@H]2CN(C(=O)c3cccnc3)C[C@@H]12)N1CCCC1 | 1.64% |
| CC1N(C)C(=O)COC12CCN(Cc1nccs1)CC2 (configuration not stated) | -9.04% |
| Cn1cccc1C(=O)N1C[C@@H]2C[C@@H](c3nc(C4CC4)cs3)O[C@@H]2C1 | 4.85% |
| O=C(c1cscn1)N1CCC2(CN(Cc3ccsc3)C2)C1 | 31.3% |
| Cn1cc(CN2C[C@H]3CCN(C(=O)c4cscn4)C[C@H]3C2)cn1 | 27.4% |
| Cc1nnc([C@H]2C[C@@H]3CCN(Cc4ccc(C)o4)C[C@H]3O2)[nH]1 | -7.28% |
| Cc1ccc(CN2CCc3c(COC(C)C)nn(C)c3C2)s1 | -9.08% |
| Cn1cc(CN2CCC3(CC2)CCN(C(=O)c2cscn2)CC3)cn1 | -1.71% |
| COCc1nn(C(C)C)c2c1CCN(Cc1ccc(C)o1)C2 | -4.09% |
| O=C(COCC1CC[C@H]2[C@H](CCN2c2ncccn2)O1)N1CCCC1 (some centres not stated) | -6% |

| Structure (SMILES) | cytotoxicity at 70.5 h |
| --- | --- |
| COCCNC(=O)[C@H]1CN(Cc2sccc2C)C[C@H]2OCC[C@@H]12 | 7.63% |
| COCCNC(=O)[C@@H]1CN(Cc2sccc2C)C[C@H]2OCC[C@H]21 | -2.35% |
| Cc1ccc(CN2Cc3c(C(=O)N4CCOCC4)nn(C)c3C2)s1 | -2.1% |
| O=C(c1ccccc1)N1CCC[C@]2(C[C@@H](Oc3ncccc3F)CO2)C1 | 23.2% |
| O=C(c1cccs1)N1C[C@@H]2OCCN(CC3CCCO3)[C@@H]2C1 (some centres not stated) | 1.09% |
| Cc1nnc(N2CCCC3(CN(Cc4ccc(F)cc4)CCO3)C2)o1 (configuration not stated) | -1.36% |
| O=C(c1cnoc1)N1CCC[C@]2(C[C@@H](Oc3ccccn3)CO2)C1 | -6.93% |
| CN(Cc1ccco1)[C@@H]1CN(C(=O)C2CCOCC2)C[C@@H]2CCCO[C@@H]21 | 0.92% |
| c1cc(-c2ccc3nc(C4CCN(CC5CC5)CC4)nn3c2)cs1 | -8.2% |
| O=C(C1CCOCC1)N1CCO[C@H]2[C@H](Oc3cccnc3)CC[C@@H]21 | -3.29% |
| CN(Cc1ccco1)Cc1cnc2n1CCN(c1ccccn1)CC2 | -2.44% |
| CN1CCOCC2(CCN(Cc3ccc[nH]3)CC2)C1 | 30% |
| O=C(C[C@@H]1COC[C@H]2CN(Cc3cccnc3)C[C@@H]12)N1CCCC1 | -4.76% |
| O=C1COC2(CCN(Cc3ccncc3)CC2)CN1c1ccccc1 | 2.43% |
| Cn1ncc2c1CN(Cc1ccc(F)cc1)CC2COCC1CC1 (configuration not stated) | 31.5% |
| Cn1ncc2c1CN(Cc1ccccc1F)CC2COCC1CC1 (configuration not stated) | 23.7% |
| COCCN1C[C@H](OCc2csc(C)n2)[C@H]2COC[C@H]21 | -9.78% |
| CN(C)C(=O)c1nn(C)c2c1CN(Cc1cccs1)C2 | -9.29% |
| COCCNC(=O)[C@H]1CN(Cc2csc(C)n2)C[C@H]2OCC[C@@H]12 | -3.29% |
| Cn1cc(CN2CCCC23CCN(Cc2nccn2C)CC3)cn1 | 3.37% |
| CN1CC(=O)N(c2ccsc2)CC12CCN(Cc1cnn(C)c1)C2 (configuration not stated) | -0.306% |
| CC(C)N(C)[C@@H]1CCN(Cc2nccs2)[C@H]1Cc1ccncc1 | -8.84% |
| CN(C)CCN1CCOCC2(CCN(Cc3ccc[nH]3)CC2)C1 | 0.665% |
| CN1CC(=O)N(c2cnn(C)c2)CC12CCN(Cc1cccnc1)C2 (configuration not stated) | 0.303% |
